Laboratory results: ChEMBL document CHEMBL1133023, “Deoxy sugar analogues of triciribine: correlation of antiviral and antiproliferative activity with intracellular phosphorylation” (J Med Chem, 2000)

What was measured:
Format in all cases: functional, cell-based
[1] = Antiviral activity was tested using an enzyme-linked immunosorbent assay (ELISA) to detect HSV-1 (herpes simplex virus type 1) using BSC-1 cells; details: Cercopithecidae
[2] = tested on: CEM-SS; assay: Tested for visual cytotoxicity on uninfected CEM-SS cells; details: Homo sapiens
[3] = tested on: CEM-SS; assay: Intracellular phosphorylation (100 uM) in uninfected CEM-SS cells was studied after 24 hrs of Incubation time; details: Homo sapiens
[4] = tested on: HFF; assay: Tested for visual cytotoxicity on uninfected HFF cells; details: Homo sapiens
[5] = tested on: HFF; assay: HCMV plaque assay was performed using HFF cells and effect was calculated as a percentage of reduction in number of plaques; details: Homo sapiens
[6] = tested on: KB; assay: Inhibition of KB cell growth was assessed; details: Homo sapiens
[7] = tested on: CEM-SS; assay: Intracellular phosphorylation (100 uM) in uninfected CEM-SS cells was studied after 24 hrs of Incubation time; Value ranges from 3-5; details: Homo sapiens
[8] = tested on: L1210; assay: Tested in vitro for cytotoxicity against murine L1210 leukemic cells; details: Mus musculus

| IC50 [1] | IC50 [6] | Compound | IC50 [2] | Concentration [3] | IC50 [4] | IC50 [5] | Concentration [7] | IC50 [8] |
| --- | --- | --- | --- | --- | --- | --- | --- | --- |
| 65 µM | > 100 µM | CN1N=C(N)c2cn(C3O[C@H](CO)[C@H]4O[C@H]34)c3ncnc1c23 (some centres not stated) | > 100 µM | < 5 µM | > 100 µM | > 100 µM | – | – |
| > 100 µM | > 100 µM | CN1N=C(N)c2cn(C3C[C@@H](O)[C@@H](CO)O3)c3ncnc1c23 (some centres not stated) | > 100 µM | – | > 100 µM | > 100 µM | < 5 µM | > 100 µM |
| > 100 µM | > 100 µM | CN1N=C(N)c2cn([C@H]3C=C[C@@H](CO)O3)c3ncnc1c23 | > 100 µM | – | > 100 µM | > 100 µM | < 5 µM | > 100 µM |
| > 100 µM | > 100 µM | CN1N=C(N)c2cn([C@H]3CC[C@@H](CO)O3)c3ncnc1c23 | > 100 µM | 45 µM | > 100 µM | > 100 µM | – | 25 µM |
| 20 µM | 10 µM | CN1N=C(N)c2cn([C@@H]3O[C@H](COP(=O)(O)O)[C@@H](O)[C@H]3O)c3ncnc1c23 [TRICIRIBINE PHOSPHATE] | > 1 µM | – | 19 µM | 0.8 µM | – | 0.025 µM |
| > 100 µM | > 100 µM | C[C@H]1OC(n2cc3c4c(ncnc42)N(C)N=C3N)[C@H](O)[C@@H]1O (some centres not stated) | > 100 µM | – | > 100 µM | > 100 µM | < 5 µM | > 100 µM |
| 6 µM | 16 µM | CN1N=C(N)c2cn([C@@H]3O[C@H](CO)C[C@H]3O)c3ncnc1c23 | 100 µM | 276 µM | > 100 µM | > 100 µM | – | 2.2 µM |
